# Data reported in EP2371816A1, “Aminocyclohexenone, their preparation and use as medicament against oxidative stress” (ABIOGEN PHARMA S.p.A., priority 2010, dated 2011).
# Key:
# [1] = TEAC method (Trolox Equivalent Antioxidant Capacity Assay); details: ratio of gradient to gradient of reference (trolox); 37 °C, 650 nm, pH 4.5
# Excerpt: This assay is used to measure the total antioxidant activity of pure substances, biological fluids and plant compounds and is based on the reaction of antioxidants with the cation radical ABTS^˙+ (2,2'-azinobis(3-ethylbenzothiazolin-6-sulphonate)). This cation radical is metastable and has to be generated just before the experiment by reacting ABTS with hydrogen peroxide in the presence of HRP.
# This radical can be reduced, with consequent loss of absorbance, by an antioxidant whose scavenging capacity can be measured spectrophotometrically at 650 nm. The test is carried out at 37 °C and the results are obtained from a comparison with Trolox (a synthetic antioxidant and hydrophilic analogue of vitamin E).
# The ABTS solution S1 was prepared as follows: • 20 mg of ABTS were added to 50 mM of citric acid buffer (40 ml) at pH=4.5 and to the resulting solution there was added an aqueous solution of HRP (4.4 mg, 400 µl) and an aqueous solution of H2O2 (10 µl of a 30% solution diluted with 16.3 ml of water).
# For each of the compounds (2), (6) and (7), as synthesized above, there was prepared a 600 µM solution in water, methanol or DMSO according to its solubility, as well as a Trolox solution as reference.
# Each solution was diluted to produce 6 solutions each at a concentration between 25 µM and 300 µM. From each of the diluted and divided solutions, there were withdrawn 20 µl to which 200 µl of solution S1 were then added.
# The decrease in absorbance of each solution thus obtained was monitored at 650 nm until a stable value was reached (about 90 minutes).
# For each set of 6 solutions and for the reference trolox solution, the absorption was given in graph form as a function of the amount of compound (nmol) in the solution. The gradient of the straight line obtained by linear interpolation was determined according to the least squares method. The TEAC value of each compound of the invention is given in the table below and is expressed as the ratio between the gradient of the resulting straight line and the gradient of the reference (trolox) straight line.
# [2] = pH at the semi-neutralization point of titration (pKa); assay type: physicochemical; details: titration with 0.1 N NaOH or HCl; for pKa: read-out: Acid dissociation constant: pKa
# Protocol: The following equipment was used during the implementation of all the examples: • for melting point determination a Buchi B-540 instrument was used; • for pH determination at the semi-neutralization point of titration (pKa) a Mettler Toledo DL-50 instrument was used with a 0.1 N xNaOH or HCl solution; • the ^1H-NMR spectra were recorded at 300 MHz and the ^13C-NMR spectra were recorded at 75 MHz using a Varian Unity 300 instrument; • spectrophotometric measurements were carried out using a Lambda Perkin Elmer 15 UV/Vis spectrophotometer for the DPPH assay and a Wallac Victor 1420 multilabel counter spectrophotometer.
# [3] = Acute toxicity study, intraperitoneal single dose (OECD guideline no. 420); assay type: in vivo; details: result in words, with reference to Example 13
# Protocol: This study was carried out with the purpose of investigating the toxicity of a single dose of the listed compounds administered to ICR (CD-1) female mice. According to the current OECD guideline no.
# The mice used were all female and were treated by intraperitoneal injection administration. The animals were observed individually and regularly for the first 4 hours and within 24 hours after administration, and then twice a day for the whole observation period. As soon as the animals were stabilized, observations at the weekend were undertaken once only during the day.
# The evaluated parameters included the survival, body weight development, variations in skin and fur, changes in ocular, conjunctival and buccal mucous membranes, changes in activities of the respiratory, circulatory, autonomous and central nervous systems, changes in somatomotor activity and in behaviour.
# Any appearance of tremors, convulsions, salivation, diarrhea, lethargy, drowsiness and coma were attentively and regularly monitored. At the end of the observation period, a post-mortem was carried out on all the animals.
# [4] = mouse, in vivo
# Protocol: The ability of the compounds of the invention to penetrate the brain was investigated by measuring their brain/plasma (B/P) concentration ratio in mice following intraperitoneal administration.
# Female CD-1 mice were used (n=3 for each time period) and received the compounds of the invention by intraperitoneal administration, in 25 mg/kg doses in a 0.5% NaHCO3 buffer (pH 8.3). At predefined intervals following said administration, i.e. 5, 15, 30 and 60 minutes, the mice were killed and both plasma and total brain tissue were collected.
# Specifically, after anaesthesia with ether, the animals were bled by blood withdrawal from the abdominal aorta then immediately decapitated. The blood samples were collected into plasma separator tubes containing Li-Heparin as anticoagulant and centrifuged. The resulting plasma was then stored at -20 °C. The brain was rapidly removed from the cranium and weighed, subsequently frozen and stored at -20 °C before treatment by homogenization and HPLC analysis.
# The plasma was thawed and mixed with an equal volume of the extraction solution. This extraction solution was a mixture of aqueous and organic solvents whose composition had been previously determined by HPLC undertaken for each analyte.
# 1 ml of solution was then extracted by adding 20 µl of 70% HClO4 then centrifuged at 15,500g for 5 minutes and injected into the HPLC.
# Each brain was thawed and homogenized with the extraction solution to provide a final composition of 4 ml/1g of tissue by means of an Ultra-Turrax blender and sonicated for 5 minutes. After centrifugation of the homogenate at 15,500g for 5 minutes, the resulting solution was treated with HClO4, as indicated for the plasma.
# Specific chromatographic conditions had been developed for each analyte, the calibration curve being constructed for plasma and brain homogenate.
# [5] = system: cerebral oxidative stress induced in mice by doxorubicin; experiment: In vivo assay of cerebral oxidative stress induced in mice by doxorubicin; details: for Brain/BWi / CAT/pr / GPX/pr / GSH/pr / GST/pr / Prot. Hmg / Prot. Ox/pr / SOD/pr: % variation relative to the vehicle, 50 mg/kg IP x3 days (D = doxorubicin alone); for Brain/BWi / CAT/pr / GPX/pr / GSH/pr / GST/pr / Prot. Hmg / Prot. Ox/pr / SOD/pr / Mean % variation relative to the vehicle: healthy animals; for Mean % variation relative to the vehicle: 50 mg/kg IP days 0, 1 and 2, mean over all parameters, approximate safety index (D = doxorubicin alone)
# Protocol: The assay was carried out on compounds (1) and (3)-(6) and on edaravone (E) as comparative compound.
# 10 mice were used for each treatment group. For each compound 50 mg/kg were administered intraperitoneally (IP) for three consecutive days (day 0, 1 and 2); half the animals (5) also received IP 16.7 mg/kg of doxorubicin immediately after the first treatment (day 0). On the day after the last administration (day 3) the animals were killed by neck dislocation and the brains were removed, weighed and frozen in liquid nitrogen.
# For the analyses of oxidative stress, 100 mg/ml of brain homogenate was prepared in Hebe buffer (pH 7.4 EDTA/HEPES^(**)) containing a mixture of enzyme inhibitors (Leupeptin, Pepstatin, Aprotinin, BHA). • ^(*) Hypotonic Extraction Buffer • ^(**) 4-2-hydroxyethyl-1-piperazinyl-ethanesulphonic acid
# The evaluation parameters were: • BrW/BWi: ratio between final brain weight and initial body weight (day 0); • Prot. Hmg: total proteins in the homogenate (BCA method, i.e. bicinchoninic acid); • Prot. Ox: oxidized proteins in the Hmg by means of a colorimetric method using […] (DNPH); • GSH: reduced glutathione in the supernatant (sn) of the Hmg, obtained after precipitation with metaphosphoric acid (MPA), by means of a colorimetric method using […] (DTNB); • CAT: catalase in the Hmg by a colorimetric method using potassium dichromate; • SOD: superoxide dismutase by a colorimetric method using SOD Reagent (xanthine, EDTA, nitroblue tetrazole, Na2CO3, BSA, i.e. bovine serum albumin); • GST: glutathione S-transferase in the supernatant by a colorimetric method using chlorodinitrobenzene (CDNB) and GSH; and • GPx: glutathione peroxidase in the supernatant after addition of GSH and tert butyl hydroperoxide (t-BuOOH), heating and precipitation with MPA; followed by GSH method with DTNB.
# All the parameters, with the exclusion of Brain/BWi and Prot. Hmg, were normalized for total Hmg proteins (Table 3). The D value standard deviations and the % incidence relative to V are given in italics.
# The mean % effect, on all the parameters simultaneously, of the triple treatment in the healthy animals, as mean percentage variation relative to the vehicle (table 4). This value is useful as an approximate safety index of the oxidative state of the brain, i.e. the capacity of the compounds of the invention not to alter cerebral homeostasis in healthy animals.
# The effect of the tested compounds on the "oxidized" animals was given as % inhibition relative to the percentage variation due to doxorubicin alone. The effect of the compounds on the oxidized animals can be expressed both as a function of the values of the vehicle (healthy, vehicle only) and as a function of the value of its own control (healthy, compound only): • Vehicle: percentage [(Compound+D)/V]x100/[(V+D)/V]x100 • Its own: percentage [(Compound+D)/Compound]x100/[(V+D)/V]x100
# [6] = % inhibition relative to variation due to doxorubicin alone, oxidized animals, as function of its own control
# [7] = % inhibition relative to variation due to doxorubicin alone, oxidized animals, as function of vehicle
Compound,TEAC [1],pKa [2],toxicity evaluation in vivo (tolerability) [3],bioavailability at the target site / crossing of the blood-brain barrier [4],Brain/BWi [5] [%],CAT/pr [5] [%],GPX/pr [5] [%],GSH/pr [5] [%],GST/pr [5] [%],Prot. Hmg [5] [%],Prot. Ox/pr [5] [%],SOD/pr [5] [%],Mean % variation relative to the vehicle [5] [%],also measured
"CC1(C)CC(=O)C=C(NN2CCOCC2)C1 [(7), 5,5-dimethyl-3-(morpholinoamino)cyclohex-2-enone]",0.8,2.94,well tolerated,"particularly bioavailable, as well as able to cross the blood-brain barrier in effective amounts",,,,,,,,,,
"O=C1O[C@H]([C@@H](O)CO)C(O)=C1O [vitamin C, reference compound]",0.9,,,,,,,,,,,,,
"O=C1C=C(NN2CCCCC2)CC(c2ccccc2)C1 (stereo not drawn) [(2), 5-phenyl-3-(piperidin-1-ylamino)cyclohex-2-enone]",1.67,,,,,,,,,,,,,
"CC1(C)CC(=O)C=C(N(O)Cc2cccnc2)C1 [(4), 3-(hydroxy(pyridin-3-ylmethyl)amino)-5,5-dimethylcyclohex-2-enone]",,,well tolerated,"particularly bioavailable, as well as able to cross the blood-brain barrier in effective amounts",-0.1,-9.3,0.1,-0.2,0.5,1.2,-10.3,0.0,0.0,"Acid dissociation constants: pKa1 [2]: 2.70; Acid dissociation constants: pKa2 [2]: 6.47; Brain/BWi its own [5, 6]: 56.5%; CAT/pr its own [5, 6]: -43.2%; GPX/pr its own [5, 6]: -6.1%; GSH/pr its own [5, 6]: 35.2%; GST/pr its own [5, 6]: -34.1%; Prot. Hmg its own [5, 6]: -38.6%; Prot. Ox/pr its own [5, 6]: 57.6%; SOD/pr its own [5, 6]: 73.4%; Brain/BWi vehicle [5, 7]: 79.7%; CAT/pr vehicle [5, 7]: 9.1%; GPX/pr vehicle [5, 7]: -8.1%; GSH/pr vehicle [5, 7]: 39.2%; GST/pr vehicle [5, 7]: -45.1%; Prot. Hmg vehicle [5, 7]: 1.2%; Prot. Ox/pr vehicle [5, 7]: -106.4%; SOD/pr vehicle [5, 7]: 73.4%"
"CC1(C)CC(=O)C=C(N(O)Cc2ccccn2)C1 [(5), 3-(hydroxy(pyridin-2-ylmethyl)amino)-5,5-dimethylcyclohex-2-enone]",,4.2,well tolerated,"particularly bioavailable, as well as able to cross the blood-brain barrier in effective amounts",-3.3,-6.2,1.5,-0.9,3.1,0.7,-5.5,-2.3,-0.4,
"COc1cccc2c1C(=O)c1c(O)c3c(c(O)c1C2=O)C[C@@](O)(C(=O)CO)C[C@@H]3O[C@H]1C[C@H](N)[C@H](O)[C@H](C)O1 [D, doxorubicin, reference compound]",,,,,,-13.2,-9.9,-12.5,-9.1,8.3,17.2,-14.3,-11.4,"Brain/BWi ([5]; 50 mg/kg): -6.9%; Brain/BWi ([5]; listed as Doxo, 50 mg/kg): 6.9%"
